Data from patent US20050191308A1 (priority 1999, published 2005).

Tests used:
blood cells = format: in vivo, C57BL/6 mice; settings: 10 μg ESAT-6/dose, three times
ESAT-6 = settings: in vivo

Compound: CCCCCCCCCCCCCCCCCC[N+](C)(C)CCCCCCCCCCCCCCCCCC.[Br-] [DDA]
- ESAT-6 specific recall response, IFN-γ, Expt. I (blood cells): <50 pg/mL
- ESAT-6 specific IgG (end-point titer), Expt. I (ESAT-6): <3
- ESAT-6 specific IgG (end-point titer), Expt. II (ESAT-6): <3
